# Reference: patent US20140155445A1, “Compounds and Methods for Treating Cancer and Diseases of the Central Nervous System” (Osta Biotechnologies Inc., priority 2007, published 2014)
# Structures can show the parent of a compound that is named as a salt. Where two headings read alike, the source gives them in different places.
# Assays:
# [1] = molecular target: T1, HO-1 (rat spleen) (Rattus norvegicus, UniProt P06762); test: HO enzymatic activity in rat spleen microsomal fraction (CO formed from methemalbumin, gas chromatography); format: biochemical
# T1 construct: Spleen microsomes were used as a source of HO-1; from tissue; host or cells: spleen microsomal fraction of adult male Sprague-Dawley rats
# T1 sequence (P06762 1-289): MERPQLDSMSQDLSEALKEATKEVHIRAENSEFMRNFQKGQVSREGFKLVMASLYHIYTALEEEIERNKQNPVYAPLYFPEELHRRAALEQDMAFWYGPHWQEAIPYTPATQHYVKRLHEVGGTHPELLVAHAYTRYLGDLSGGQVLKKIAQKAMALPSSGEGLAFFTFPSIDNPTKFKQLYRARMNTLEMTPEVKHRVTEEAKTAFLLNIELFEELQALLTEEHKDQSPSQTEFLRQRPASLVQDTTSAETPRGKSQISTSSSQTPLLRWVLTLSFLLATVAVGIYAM
# [2] = molecular target: T2, HO-2 (rat brain) (Rattus norvegicus, UniProt P23711); test: HO enzymatic activity in rat brain microsomal fraction (CO formed from methemalbumin, gas chromatography); format: biochemical
# T2 construct: brain microsomes were used as a source of HO-2; from tissue; host or cells: brain microsomal fraction of adult male Sprague-Dawley rats
# T2 sequence (P23711 1-315): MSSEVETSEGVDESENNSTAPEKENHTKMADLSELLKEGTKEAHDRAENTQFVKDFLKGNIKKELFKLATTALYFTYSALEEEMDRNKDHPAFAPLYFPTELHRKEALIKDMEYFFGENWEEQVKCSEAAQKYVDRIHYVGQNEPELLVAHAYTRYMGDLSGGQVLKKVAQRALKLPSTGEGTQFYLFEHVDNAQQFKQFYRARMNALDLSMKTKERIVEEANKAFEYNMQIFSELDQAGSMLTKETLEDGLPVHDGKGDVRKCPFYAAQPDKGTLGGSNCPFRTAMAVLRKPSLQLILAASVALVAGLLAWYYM
# [3] = rat spleen microsomes, average ± standard deviation of replicate experiments, read-out: IC50 HO-1 (rat spleen)/μM
# [4] = rat brain microsomes, average ± standard deviation of replicate experiments, read-out: IC50 HO-2 (rat brain)/μM
compound,measurement,setting,value
Cl.Clc1ccc(CC[C@@]2(Cn3ccnc3)OC[C@@H](CSC3CCCCC3)O2)cc1,melting point,,172 to 173 °C
Cl.Clc1ccc(CC[C@@]2(Cn3ccnc3)OC[C@@H](CSc3cccc(Br)c3)O2)cc1,melting point,,128 to 129 °C
C[C@H]1CO[C@@](CCc2ccc(Cl)cc2)(Cn2ccnc2)O1.Cl,melting point,,148 to 149 °C
C[C@H]1CO[C@](CCc2ccc(Cl)cc2)(Cn2ccnc2)O1.Cl,melting point,,172 to 173 °C
C[C@@H]1CO[C@](CCc2ccc(Cl)cc2)(Cn2ccnc2)O1.Cl,melting point,,152 to 153 °C
Cl.Clc1ccc(CC[C@@]2(Cn3ccnc3)OC[C@@H](CSc3ccc(Br)cc3)O2)cc1,melting point,,141 to 142 °C
Cl.Oc1ccc(OC[C@H]2CO[C@@](CCc3ccc(Cl)cc3)(Cn3ccnc3)O2)cc1,melting point,,128 to 130 °C
COc1ccc(SC[C@@H]2CO[C@@](CCc3ccc(Cl)cc3)(Cn3ccnc3)O2)cc1.Cl,melting point,,139 to 140 °C
Cl.Clc1ccc(CC[C@@]2(Cn3ccnc3)OC[C@@H](CSc3ccc(Cl)cc3)O2)cc1,melting point,,128 to 129 °C
Cl.Fc1ccc(SC[C@@H]2CO[C@@](CCc3ccc(Cl)cc3)(Cn3ccnc3)O2)cc1,melting point,,112 to 113 °C
Cl.Fc1ccc(CCC2(Cn3ccnc3)OCCO2)cc1,melting point,,153 to 154 °C
Cl.c1ccc(CCC2(Cn3ccnc3)OCCO2)cc1,melting point,,164 to 165 °C
Cl.FC(F)(F)c1ccc(SC[C@@H]2CO[C@@](CCc3ccc(Cl)cc3)(Cn3ccnc3)O2)nc1,melting point,,156 to 157 °C
Cl.Clc1ccc(CC[C@@]2(Cn3ccnc3)OC[C@H](COc3ccc(C45CC6CC(CC(C6)C4)C5)cc3)O2)cc1,melting point,,132 to 134 °C
Cl.OC(CCc1ccc(F)cc1)Cn1ccnc1 (racemic),melting point,,86 to 87 °C
Cl.Clc1ccc(CC[C@@]2(Cn3ccnc3)OC[C@@H](COc3ccc(Br)cc3)O2)cc1 (stereo in doubt),melting point,,55 to 57 °C
Cl.Clc1ccc(CC[C@@]2(Cn3ccnc3)OC[C@@H](COc3ccc(I)cc3)O2)cc1 (stereo in doubt),melting point,,113 to 114 °C
"Clc1ccc(CC[C@@]2(Cn3ccnc3)OC[C@@H](CSc3ccc(Br)cc3)O2)cc1 [(2R,4S)-2-[2-(4-chlorophenyl)ethyl]-2-[(1H-imidazol-1-yl)methyl]-4-[{(4-bromophenyl)thio}meth-yl]-1,3-dioxolane hydrochloride]",IC50,[1]; [3],2.1 ± 0.9 µM
same,IC50,[2]; [4],2.4 ± 0.1 µM
"Clc1ccc(CC[C@@]2(Cn3ccnc3)OC[C@@H](CSc3ccc(Cl)cc3)O2)cc1 [(2R,4S)-2-[2-(4-chlorophenyl)ethyl]-2-[(1H-imidazol-1-yl)methyl]-4-[{(4-chlorophenyl)thio}meth-yl]-1,3-dioxolane hydrochloride]",IC50,[1]; [3],2.8 ± 0.4 µM
same,IC50,[2]; [4],12 ± 5 µM
"Fc1ccc(SC[C@@H]2CO[C@@](CCc3ccc(Cl)cc3)(Cn3ccnc3)O2)cc1 [(2R,4S)-2-[2-(4-chlorophenyl)ethyl]-2-[(1H-imidazol-1-yl)methyl]-4-[{(4-fluorophenyl)thio}meth-yl]-1,3-dioxolane hydrochloride]",IC50,[1]; [3],2.2 ± 0.2 µM
same,IC50,[2]; [4],5 ± 4 µM
"Oc1ccc(SC[C@@H]2CO[C@@](CCc3ccc(Cl)cc3)(Cn3ccnc3)O2)cc1 [(2R,4S)-2-[2-(4-chlorophenyl)ethyl]-2-[(1H-imidazol-1-yl)methyl]-4-[{(4-hydroxyphenyl)thio}methyl]-1,3-dioxolane]",IC50,[1]; [3],1.59 ± 0.03 µM
same,IC50,[2]; [4],7 ± 2 µM
"COc1ccc(SC[C@@H]2CO[C@@](CCc3ccc(Cl)cc3)(Cn3ccnc3)O2)cc1 [(2R,4S)-2-[2-(4-chlorophenyl)ethyl]-2-[(1H-imidazol-1-yl)methyl]-4-[{(4-methoxyphenyl)thio}methyl]-1,3-dioxolane hydrochloride]",IC50,[1]; [3],0.7 ± 0.3 µM
same,IC50,[2]; [4],2.5 ± 0.4 µM
"O=[N+]([O-])c1ccc(SC[C@@H]2CO[C@@](CCc3ccc(Cl)cc3)(Cn3ccnc3)O2)cc1 [(2R,4S)-2-[2-(4-chlorophenyl)ethyl]-2-[(1H-imidazol-1-yl)methyl]-4-[{(4-nitrophenyl)thio}meth-yl]-1,3-dioxolane hydrochloride]",IC50,[1]; [3],6 ± 2 µM
same,IC50,[2]; [4],19 ± 2 µM
"Clc1ccc(CC[C@@]2(Cn3ccnc3)OC[C@@H](CSc3ccncc3)O2)cc1 [(2R,4S)-2-[2-(4-chlorophenyl)ethyl]-2-[(1H-imidazol-1-yl)methyl]-4-[{(4-pyridinyl)thio}methyl]-1,3-dioxolane dihydrochloride]",IC50,[1]; [3],25 ± 5 µM
same,IC50,[2]; [4],69 ± 8 µM
"C[C@H]1CO[C@@](CCc2ccc(Cl)cc2)(Cn2ccnc2)O1 [(2R,4S)-2-[2-(4-chlorophenyl)ethyl]-2-[(1H-imidazol-1-yl)methyl]-4-methyl-1,3-dioxolane hydrochloride]",IC50,[1]; [3],2.6 ± 0.4 µM
same,IC50,[2],> 100 µM
"FC(F)(F)c1ccc(SC[C@@H]2CO[C@@](CCc3ccc(Cl)cc3)(Cn3ccnc3)O2)nc1 [(2R,4S)-2-[2-(4-chlorophenyl)ethyl]-2-[(1H-imidazol-1-yl)methyl]-4[{(5-trifluoromethyl-pyridin-2-yl)ethio}methyl]-1,3-dioxolane hydrochloride]",IC50,[1]; [3],2.1 ± 0.6 µM
same,IC50,[2]; [4],16 ± 8 µM
"Cc1ccc(S(=O)(=O)OC[C@H]2CO[C@](CCc3ccc(Cl)cc3)(Cn3ccnc3)O2)cc1 [(2S,4R)-2-[2-(4-chlorophenyl)ethyl]-2-[(1H-imidazol-1-yl)methyl]-4-[(p-toluenesulfonyloxy)meth-yl]-1,3-dioxolane]",IC50,[1],17 ± 1 µM
same,IC50,[2],120 ± 34 µM
"Nc1ccccc1SC[C@H]1CO[C@](CCc2ccc(Cl)cc2)(Cn2ccnc2)O1 [(2S,4R)-2-[2-(4-chlorophenyl)ethyl]-2-[(1H-imidazol-1-yl)methyl]-4-[{(2-aminophenyl)thio}meth-yl]-1,3-dioxolane hydrochloride]",IC50,[1]; [3],~4.2 µM
same,IC50,[2]; [4],> 100 µM
"C[C@@H]1CO[C@](CCc2ccc(Cl)cc2)(Cn2ccnc2)O1 [(2S,4R)-2-[2-(4-chlorophenyl)ethyl]-2-[(1H-imidazol-1-yl)methyl]-4-methyl-1,3-dioxolane hydrochloride]",IC50,[1]; [3],20 ± 4 µM
same,IC50,[2]; [4],> 100 µM
"Clc1ccc(CC[C@]2(Cn3ccnc3)OC[C@@H](CSc3ccc4ccccc4c3)O2)cc1 [(2S,4S)-2-[2-(4-chlorophenyl)ethyl]-2-[(1H-imidazol-1-yl)methyl]-4-[{(2-naphthyl)thio}methyl]-1,3-dioxolane hydrochloride]",IC50,[1]; [3],14 ± 2 µM
same,IC50,[2]; [4],62 ± 7 µM
"C[C@H]1CO[C@](CCc2ccc(Cl)cc2)(Cn2ccnc2)O1 [(2S,4S)-2-[2-(4-chlorophenyl)ethyl]-2-[(1H-imidazol-1-yl)methyl]-4-methyl-1,3-dioxolane hydrochloride]",IC50,[1]; [3],12 ± 4 µM
same,IC50,[2]; [4],> 100 µM
COC(=O)Nc1nc2ccc([S+]([O-])c3ccccc3)cc2[nH]1 (stereo not drawn) [(5-benzenesulfinyl-1H-benzoimidazol-2-yl)-carbamic acid methyl ester],IC50,[1]; [3],115 µM
same,IC50,[2]; [4],> 100 µM
"c1ccc2[nH]cnc2c1 [Benzimidazole, reference compound]",IC50,[1]; [3],> 100 µM
same,IC50,[2]; [4],> 100 µM
"COC(=O)Nc1nc2ccc(Sc3ccccc3)cc2[nH]1 [Fenbendazol, reference compound]",IC50,[1]; [3],> 100 µM
same,IC50,[2]; [4],> 100 µM
"COC(=O)Nc1nc2cc(C(=O)c3ccc(F)cc3)ccc2[nH]1 [Flubendazol, reference compound]",IC50,[1]; [3],> 100 µM
same,IC50,[2]; [4],> 100 µM
"COC(=O)Nc1nc2ccc(C(=O)c3cccs3)cc2[nH]1 [Nocodazole, reference compound]",IC50,[1]; [3],> 100 µM
same,IC50,[2]; [4],> 100 µM
"FC[C@@H]1CO[C@@](CCc2ccc(Cl)cc2)(Cn2ccnc2)O1 [drawing 85, (2R,4S)-2-[2-(4-chlorophenyl)ethyl]-2-[(1H-imidazol-1-yl)methyl]-4-(fluoromethyl)-1,3-dioxolane hydrochloride]",IC50,[1]; [3],1.2 ± 0.01 µM
same,IC50,[2]; [4],4.4 ± 0.4 µM
"O=C(CCc1ccccc1)Cn1cnc(-c2ccccc2)c1 [drawing 162, 4-Phenyl-1-(4-phenyl-imidazol-1-yl)-butan-2-one hydrochloride]",IC50,[1]; [3],32 ± 2 µM
same,IC50,[2]; [4],> 100 µM
"O=C(CCc1ccccc1)Cn1cnc(-c2ccccc2)c1 [drawing 256, 4-Phenyl-1-(4-phenyl-1H-imidazol-1-yl)-butan-2-one hydrochloride]",IC50,[1]; [3],32 ± 2 µM
same,IC50,[2]; [4],> 100 µM
Imidazole [reference compound],IC50,[1]; [3],> 100 µM
same,IC50,[2]; [4],> 100 µM
